# Measurements taken from patent US20230096663A1, “FARNESOID X RECEPTOR MODULATING COMPOUNDS AND METHODS OF USING THE SAME” (Inorbit Therapeutics AB, priority 2020, published 2023).
# Like-named read-outs stand apart in the source and are kept apart here.
# Assays:
# [1] = molecular target: T1, Human FXR receptor (NR1H4) (Homo sapiens, UniProt Q96RI1); assay: Human Farnesoid X Receptor (NR1H4, FXR) reporter assay; assay type: cell-based
# T1 sequence (Q96RI1 1-486): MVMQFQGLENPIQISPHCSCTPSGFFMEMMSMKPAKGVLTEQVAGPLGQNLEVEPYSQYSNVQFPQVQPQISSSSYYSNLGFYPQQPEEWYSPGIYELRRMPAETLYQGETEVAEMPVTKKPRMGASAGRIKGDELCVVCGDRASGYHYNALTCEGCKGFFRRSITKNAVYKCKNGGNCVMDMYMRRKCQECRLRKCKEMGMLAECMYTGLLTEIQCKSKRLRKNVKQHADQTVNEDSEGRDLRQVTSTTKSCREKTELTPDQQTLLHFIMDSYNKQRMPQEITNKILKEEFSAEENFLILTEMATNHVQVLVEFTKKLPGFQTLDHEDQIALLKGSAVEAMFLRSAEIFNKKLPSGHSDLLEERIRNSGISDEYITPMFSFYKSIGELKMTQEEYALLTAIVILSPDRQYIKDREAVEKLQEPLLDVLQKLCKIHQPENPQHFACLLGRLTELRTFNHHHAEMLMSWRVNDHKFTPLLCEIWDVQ
# Excerpt: Determination of a ligand mediated Gal4 promoter driven transactivation to quantify ligand binding mediated activation of FXR. A FXR Reporter Assay kit was purchased from Indigo Bioscience (#IB00601-32) to determine the potency and efficacy of compounds that can induce FXR activation. The nuclear receptor assay system utilizes non-human mammalian cells engineered to provide constitutive high level expression of Human FXR receptor (NR1H4), a ligand-dependent transcription factor. The reporter cells include luciferase reporter gene functionality linked to an FXR-response promoter. Quantifying changes in luciferase expression in the treated reporter cells provides a sensitive surrogate measure of the changes in FXR activity. […] Luminescence intensity of the reaction is quantified using a luminometer, and is reported in terms of Relative Light Units (RLU's). […] After incubation, the media was carefully removed, Luciferase detection solution was added and the plate read in a Luminometer. The data was calculated as per kit instructions, with increases in luminescence being directly proportional to increases in compound agonist activity.
# [2] = test system: FXR related genes (BSEP, SHP) in primary human hepatocytes; assay: Gene expression in human primary hepatocytes (BSEP, SHP); assay type: cell-based; settings: 24 hours incubation
# Experimental: The test compound was dissolved in buffer to give a 10 mM stock solution. The compound was serially diluted to the desired concentrations and then incubated with human primary hepatocytes for 24 hours at 37° C. in a CO2 incubator. After incubation, the media was removed and the RNA harvested using the Trizol-CHCl3 method and quantified using Nano drop. The RNA was then Reverse Transcribed to cDNA using a superscript vilo cDNA synthesis kit. The cDNA with respective Taqman primers, master mix are then amplified using quantitative RT-PCR system. […] The compounds of examples 2 and 3 upregulate FXR related and disease relevant genes on incubation with primary human hepatocytes. […] It is a uni-directional, ATP-dependent efflux transporter that plays an important role in the elimination of bile salts from the hepatocyte into the bile canaliculi for export into the gastrointestinal tract. FXR also induces the expression of small heterodimer partner (SHP) which controls a complex set of genes in multiple metabolic pathways. It reduces the expression of CYP7A1, a liver-specific enzyme that catalyzes the first and rate-limiting step in one of the two pathways for bile acid biosynthesis.
# [3] = test system: HFHC fed male C57BL/6 mice; assay: In-vivo efficacy in high fat high cholesterol diet (HFHC) fed male C57BL/6 mice; settings: oral, 3 mg/kg BID, 3 mg/kg QD and 10 mg/kg BID, after 28 days
# Experimental: C57BL/6J male mice were purchased at the age of 8 weeks. After an acclimation period of 1 week, animals were maintained on high fat high cholesterol diet (Research diets) with 60% kcal from fat plus 0.5% (w/w) extra cholesterol (Research diet, D02051401) for a period of 4 weeks. Age matched control animals (n=6) were maintained on normal chow. Mice were dosed with vehicle, test compounds and GW4064 morning (7.00 AM) and evening (5:00 PM) from day 0 to 27. At 28th day, animals were dosed at 7:00 AM and kept on fasting for next 4 hours before blood and tissues collection. Plasma samples separated from collected blood were stored at −20° C. immediately for estimation analysis. The samples were analyzed using the Siemens Dimension RxL Max Clinical chemistry analyzer.
# Right liver lobe was used for the test compounds exposure, triglyceride and cholesterol estimation. Liver tissues were dissected, weighed and snap frozen and stored at −80° C. for further analysis of hepatic triglyceride, cholesterol and compound exposure. In brief, stored tissues were thawed to room temperature and triglycerides were extracted by homogenizing 25 mg of liver tissues in 1 ml of 5% Triton X100 (Lot No. 61K01741-Sigma Aldrich) in water. Homogenized tissues were slowly heated to 80° C. in water bath for 5 minutes. The samples were cooled down and again heated to solubilize all the triglycerides into solution. The samples were centrifuged for 5 minutes at 4000 RPM and supernatant was collected for quantification^3 using commercially available kit from ERBA (Lot No. B061832).
# Homogenized samples were centrifuge at 13000 g for 10 minutes to remove insoluble material. The organic phase was separated into new tube and air dried at 50° C. to remove chloroform. Thereafter, samples were vacuumed for 30 minutes to remove residue organic solvent. Dried lipids were dissolved in 200 μL of cholesterol assay buffer (provided with Sigma cholesterol assay kit Lot No. B2J210603V), sonicated for 20 minutes and vortexed until mixture was homogenous as mentioned in kit protocol. Samples were diluted with cholesterol assay buffer at (1:10) ratio to fit in standard curve and finally 50 μL of diluted samples were used for the assay.
# Compound levels were also measured in the plasma and liver to understand its distribution profile.
# [4] = Metabolic identification in dog hepatocytes; assay type: in vitro ADME; settings: up to 120 min
# Experimental: A 10 mM stock of test compound from Example 2 (sodium 2-(3-((5-cyclopropyl-3-(2-(trifluoromethoxy)phenyl)isoxazol-4-yl)methoxy)-8-azabicyclo[3.2.1]octan-8-yl)-4-fluorobenzo[d]thiazole-6-sulfinate) was prepared in DMSO. 20 μM of final working stock was then prepared by diluting 4 μL of 10 mM stock in 1996 μL of Krebs-Hensleit buffer. 200 μL of hepatocyte cell suspension (2×10^6 cells/mL) was added to TPP 48 well plate and preincubated for 30 min @ 37° C. in incubator. 200 μL of 20 μM working stock of test compound was added to the cell suspension and incubated in an incubator on vibramax at a shaking speed of 500 rpm. For the 0 min sample, 25 μL of hepatocyte suspension was precipitated with 200 μL of acetonitrile and 25 μL of 20 μM test compound was added. The reaction was stopped at 15, 30, 60, 90, 120 min by precipitating 50 μL of incubation mixture with 200 μL of acetonitrile. The samples were vortexed for 5 min at 1200 rpm and centrifuged at 4000 rpm for 10 min. The supernatant was separated, diluted 2 fold with water and analysed using a HPLC (Shimadzu SIL HTS) and mass spectrometer (5500 Qtrap). Acetonitrile and 0.1% formic acid in Milli-q-water were used as the mobile phase, using a column of either Waters Xbridge C18, 250×3.0 mm, 5.0μ particle size or Phenomnex kinetex 5μ EVO C18 100 A, 50×4.6 mm 5.0μ particle size. […]
# [5] = Compound exposure in plasma and liver of HFHC fed male mice; assay type: in vivo; settings: C57BL/6J, mouse, oral; for Kp at 4 h: liver/plasma, 4 hours after last dose on day 28, read-out: Ratio (liver to plasma exposure)
smiles,measurement,setting,value
"O=S([O-])c1cc(F)c2nc(N3[C@@H]4CC[C@H]3C[C@@H](OCc3c(-c5ccccc5OC(F)(F)F)noc3C3CC3)C4)sc2c1.[Na+] [Example 2, Sodium 2-(3-((5-cyclopropyl-3-(2-(trifluoromethoxy)phenyl)isoxazol-4-yl)methoxy)-8-azabicyclo[3.2.1]octan-8-yl)-4-fluorobenzo[d]thiazole-6-sulfinate]",EC50,"[1]; Human FXR (NR1H4) luciferase reporter assay, 22-24 h",0.46 µM
same,Efficacy,[1]; normalized to GW4064 set as 100%,119%
same,"Expression of FXR related and disease relevant genes (BSEP, SHP)",[2],upregulate
same,Cholesterol levels in the liver,[3],reductions
same,Cholesterol levels in the plasma,[3],reductions
same,Liver triglycerides,[3],reductions
same,Acyl-Glucuronide,[4],No
same,concentration at 4 h,"[5]; liver, 3 mg/kg, 3 mg/kg BID oral, 4 hours after last dose on day 28, read-out: Mean compound exposure, Liver",54.8 ng/g
same,concentration at 4 h,"[5]; liver, 10 mg/kg, 10 mg/kg BID oral, 4 hours after last dose on day 28, read-out: Mean compound exposure, Liver",138 ng/g
same,concentration at 4 h,"[5]; liver, 10 mg/kg, 10 mg/kg QD oral, 4 hours after last dose on day 28, read-out: Mean compound exposure, Liver",80.1 ng/g
same,Kp at 4 h,"[5]; 3 mg/kg, 3 mg/kg BID oral",54.8
same,Kp at 4 h,"[5]; 10 mg/kg, 10 mg/kg BID oral",65.9
same,Kp at 4 h,"[5]; 10 mg/kg, 10 mg/kg QD oral",66.8
same,concentration at 4 h,"[5]; plasma, 3 mg/kg, 3 mg/kg BID oral, 4 hours after last dose on day 28, read-out: Mean compound exposure, Plasma",1 ng/mL
same,concentration at 4 h,"[5]; plasma, 10 mg/kg, 10 mg/kg BID oral, 4 hours after last dose on day 28, read-out: Mean compound exposure, Plasma",2.1 ng/mL
same,concentration at 4 h,"[5]; plasma, 10 mg/kg, 10 mg/kg QD oral, 4 hours after last dose on day 28, read-out: Mean compound exposure, Plasma",1.2 ng/mL
